Results taken from patent US12356984B2, “Paraquat formulation” (priority 2018, dated 2025).

Assay: Compatibility (precipitation) of polyvinylalcohol-acetate copolymer with charged active ingredients
Assay type: physicochemical
Details: for Behaviour of polyvinylalcohol when formulated with the charged active ingredient: oil in water emulsion / solution of the active ingredient; for Formulability as oil-in-water emulsion (EW): Mowiol 4-88/SPAN 40 and TWEEN 40 system
Text: One of the challenges faced when formulating pesticidal compositions is the compatibility of active ingredients with additional formulation ingredients, such as surfactants. This is especially a challenge when the active ingredient is highly charged.

SMILES	Quantity at the maximum ratio of Mowiol 4-88 to glufosinate and water at which the copolymer does not precipitate (ammonium glufosinate / Mowiol 4-88 (20% w/w in water) / water 90.15% w/w) [% w/w]	Quantity at the maximum ratio of Mowiol 4-88 to glyphosate and water at which the copolymer does not precipitate (potassium glyphosate / Mowiol 4-88 (20% w/w in water) / water 93.48% w/w) [% w/w]	Behaviour of polyvinylalcohol when formulated with the charged active ingredient	Formulability as oil-in-water emulsion (EW)
CP(=O)(O)CCC(N)C(=O)O.N (stereo not shown) [Ammonium glufosinate]	8.49	–	–	–
O=C(O)CNCP(=O)([O-])O.[K+] [Potassium glyphosate]	–	5.76	–	–
C[n+]1ccc(-c2cc[n+](C)cc2)cc1 [paraquat]	–	–	readily dissolves	–
CP(=O)(O)CCC(N)C(=O)O (stereo not shown) [glufosinate]	–	–	precipitates out of solution	cannot be formulated as an oil-in-water emulsion (EW) at a commercially acceptable concentration
O=C(O)CNCP(=O)(O)O [glyphosate]	–	–	precipitates out of solution	cannot be formulated as an EW at a commercially acceptable concentration
